According to ChEMBL document CHEMBL2417535, “Synthesis and structure-activity relationships evaluation of benzothiazinone derivatives as potential anti-tubercular agents” (Bioorg Med Chem Lett, 2013):
≈ marks a conversion by molar mass, not a printed value.

Experiments:
[1] = tested on: Mycobacterium tuberculosis; assay: Antitubercular activity against Mycobacterium tuberculosis H37Ra ATCC 25177 by microplate alamar blue assay; assay type: functional
[2] = tested on: Vero; assay: Cytotoxicity against african green monkey Vero cells after 72 hrs by MTT assay; assay type: cell-based; settings: Chlorocebus sabaeus
[3] = Selectivity index, ratio of IC50 for african green monkey Vero cells to MIC for Mycobacterium tuberculosis H37Ra ATCC 25177; assay type: functional
[4] = Lipophilicity, log P of the compound by shake flask method; assay type: physicochemical; settings: octanol/water
[5] = tested on: Mycobacterium avium; assay: Antitubercular activity against Mycobacterium avium ATCC 25291 by microdilution plate assay; assay type: functional, Mycobacterium avium subsp. avium ATCC 25291
[6] = tested on: Mycolicibacterium smegmatis; assay: Antitubercular activity against Mycobacterium smegmatis MC2 155 by microplate alamar blue assay; assay type: functional; settings: str. MC2 155
[7] = Selectivity index, ratio of IC50 for african green monkey Vero cells to MIC for Mycobacterium tuberculosis H37Rv ATCC 27294; assay type: functional
[8] = tested on: Mycobacterium tuberculosis; assay: Antitubercular activity against Mycobacterium tuberculosis H37Rv ATCC 27294 by microdilution plate assay; assay type: functional
[9] = AUC (0 to infinity) in Sprague-Dawley rat at 10 mg/kg, iv; assay type: ADME, organism-based; set-up: time infinity, dose 10 mg/kg, route intravenous; settings: plasma
[10] = Tmax in Sprague-Dawley rat at 20 mg/kg, po; assay type: ADME, organism-based; set-up: dose 20 mg/kg, route oral; settings: in vivo
[11] = Cmax in Sprague-Dawley rat at 10 mg/kg, iv; assay type: ADME, organism-based; set-up: dose 10 mg/kg, route intravenous; settings: in vivo
[12] = AUC (0 to infinity) in Sprague-Dawley rat at 20 mg/kg, po; assay type: ADME, organism-based; set-up: dose 20 mg/kg, route oral, time infinity; settings: plasma
[13] = Elimination half life in Sprague-Dawley rat at 10 mg/kg, iv; assay type: ADME, organism-based; set-up: dose 10 mg/kg, route intravenous; settings: in vivo, read-out: beta t1/2 (converted)
[14] = Elimination half life in Sprague-Dawley rat at 20 mg/kg, po; assay type: ADME, organism-based; set-up: dose 20 mg/kg, route oral; settings: in vivo, read-out: beta t1/2 (converted)
[15] = Cmax in Sprague-Dawley rat at 20 mg/kg, po; assay type: ADME, organism-based; set-up: dose 20 mg/kg, route oral; settings: in vivo
[16] = tested on: Mus musculus; assay: Acute toxicity in BALB/c mouse assessed as mortality at 2 g/kg, po; assay type: organism-based; settings: in vivo, 2000 mg/kg
[17] = Oral bioavailability in Sprague-Dawley rat at 20 mg/kg; assay type: ADME, organism-based; settings: in vivo
[18] = tested on: Mycobacterium tuberculosis; assay: Ratio of isoniazid MIC to compound MIC for Mycobacterium tuberculosis H37Rv ATCC 27294; assay type: functional

Row | Compound | MIC [1] | IC50 [2] | Selectivity Index [3] | Selectivity Index [7] | MIC [8] | further results
1 | O=c1nc(NC2CCCC2)sc2c([N+](=O)[O-])cc(C(F)(F)F)cc12 | 0.8 µM (≈ 287 ng/mL) | > 100 µM | >125 |  |  | 
2 | CC1COC2(CCN(c3nc(=O)c4cc(C(F)(F)F)cc([N+](=O)[O-])c4s3)CC2)O1 (racemic) | 0.004 µM (≈ 1.73 ng/mL) | > 100 µM |  | >50000 | 0.002 µM (≈ 0.863 ng/mL) | logP [4]: 2.69; MIC [5]: 74 µM (≈ 31900 ng/mL); MIC [6]: 0.013 µM (≈ 5.61 ng/mL)
3 | CCCNc1nc(=O)c2cc([N+](=O)[O-])cc([N+](=O)[O-])c2s1 | 3.1 µM (≈ 962 ng/mL) |  |  |  |  | 
4 | CCCCNc1nc(=O)c2cc(C(F)(F)F)cc([N+](=O)[O-])c2s1 | 0.8 µM (≈ 278 ng/mL) | > 100 µM | >125 |  |  | 
5 | NNC(=O)c1ccncc1 [ISONIAZID] | 0.8 µM (≈ 110 ng/mL) | > 100 µM |  | >500 | 0.2 µM (≈ 27.4 ng/mL) | 
6 | O=c1nc(N2CCOCC2)sc2c([N+](=O)[O-])cc(C(F)(F)F)cc12 | 3.1 µM (≈ 1120 ng/mL) | > 100 µM | >32 |  |  | 
7 | CCN(CC)c1nc(=O)c2cc(C(F)(F)F)cc([N+](=O)[O-])c2s1 | 0.8 µM (≈ 278 ng/mL) | > 100 µM | >125 |  |  | 
8 | CCCNc1nc(=O)c2cc(C(F)(F)F)cc([N+](=O)[O-])c2s1 | 1.6 µM (≈ 533 ng/mL) | > 100 µM | >62 |  |  | 
9 | CC(C)(C)OC(=O)N1CCN(c2nc(=O)c3cc([N+](=O)[O-])cc([N+](=O)[O-])c3s2)CC1 | 0.4 µM (≈ 175 ng/mL) |  |  |  |  | 
10 | O=c1nc(N2CCC3(CC2)OCCS3)sc2c([N+](=O)[O-])cc(C(F)(F)F)cc12 | 0.002 µM (≈ 0.867 ng/mL) | > 100 µM |  | >50000 | 0.002 µM (≈ 0.867 ng/mL) | 
11 | CC(C)CNc1nc(=O)c2cc(C(F)(F)F)cc([N+](=O)[O-])c2s1 | 0.8 µM (≈ 278 ng/mL) | > 100 µM | >125 |  |  | 
12 | O=c1nc(N2CCCCC2)sc2c([N+](=O)[O-])cc(C(F)(F)F)cc12 | 0.8 µM (≈ 287 ng/mL) | > 100 µM |  | >142 | 0.7 µM (≈ 252 ng/mL) | 
13 | O=C(O)C1CCN(c2nc(=O)c3cc(C(F)(F)F)cc([N+](=O)[O-])c3s2)CC1 | 3.1 µM (≈ 1250 ng/mL) | > 100 µM | >32 |  |  | 
14 | CC1CCN(c2nc(=O)c3cc([N+](=O)[O-])cc([N+](=O)[O-])c3s2)CC1 | 0.2 µM (≈ 70.1 ng/mL) |  |  |  |  | 
15 | CC(C)CNc1nc(=O)c2cc([N+](=O)[O-])cc([N+](=O)[O-])c2s1 | 1.6 µM (≈ 519 ng/mL) |  |  |  |  | 
16 | O=c1nc(NC2CC2)sc2c([N+](=O)[O-])cc(C(F)(F)F)cc12 | 0.4 µM (≈ 133 ng/mL) | > 100 µM | >250 |  |  | 
17 | CC(C)(C)Nc1nc(=O)c2cc([N+](=O)[O-])cc([N+](=O)[O-])c2s1 | 0.4 µM (≈ 130 ng/mL) |  |  |  |  | 
18 | O=c1nc(N2CCC3(CC2)SCCS3)sc2c([N+](=O)[O-])cc(C(F)(F)F)cc12 | 0.001 µM (≈ 0.45 ng/mL) | > 100 µM |  | >1000000 | 0.0001 µM (≈ 0.045 ng/mL) | AUC(0-inf) [9]: 1480 ng·h/mL; logP [4]: 3.94; MIC [5]: 36 µM (≈ 16200 ng/mL); Tmax [10]: 0.5 h; Cmax [11]: 1720 ng/mL; MIC [6]: 0.0063 µM (≈ 2.83 ng/mL); AUC(0-inf) [12]: 780 ng·h/mL; half-life [13]: 2.5 h; half-life [14]: 5.4 h; Cmax [15]: 560 ng/mL; Activity [16]: Non-toxic; bioavailability [17]: 26%; Ratio [18]: 2000
19 | O=c1nc(N2CCCC2)sc2c([N+](=O)[O-])cc(C(F)(F)F)cc12 | 0.8 µM (≈ 276 ng/mL) | > 100 µM | >125 |  |  | 
20 | CCCCNc1nc(=O)c2cc([N+](=O)[O-])cc([N+](=O)[O-])c2s1 | 0.8 µM (≈ 259 ng/mL) |  |  |  |  | 
21 | CC(C)(C)OC(=O)N1CCN(c2nc(=O)c3cc(C(F)(F)F)cc([N+](=O)[O-])c3s2)CC1 | 0.02 µM (≈ 9.21 ng/mL) | > 100 µM |  | >3000 | 0.03 µM (≈ 13.8 ng/mL) | Ratio [18]: 6.7
22 | CC1CCN(c2nc(=O)c3cc(C(F)(F)F)cc([N+](=O)[O-])c3s2)CC1 | 0.1 µM (≈ 37.3 ng/mL) | > 100 µM |  | >1250 | 0.08 µM (≈ 29.9 ng/mL) | Ratio [18]: 2.5
23 | CCNc1nc(=O)c2cc(C(F)(F)F)cc([N+](=O)[O-])c2s1 | 6.3 µM (≈ 2010 ng/mL) | > 100 µM | >16 |  |  | 
